Assay results taken from patent US10294259B2, “Phenyl c-glucoside derivative containing deoxyglucose structure, preparation method and use thereof” (Tianjin Institute of Pharmaceutical Research, priority 2012, dated 2019).

System: Mice
Settings: both, mouse, in vivo, 750 mg/kg, 1 week
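Further: test animals were mice weighing 18-20 g, with both sexes in equal numbers in each group.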
Method: Mice (18-20 g) with equal numbers of male and female are divided into groups (10 mice/group), after normal feeding for 3 days, fasted for 12 hours, and then administered intragastrically with a single dose of 750 mg/kg compound respectively.

Going from `CCOc1ccc(Cc2cc(C3SC(CO)C(O)C(O)C3O)c(OC)cc2C)cc1` (stereo not shown) to `OCC1OC(c2ccc(F)c(Cc3cc4ccccc4s3)c2)C(O)C(O)C1O` (stereo not shown), the “Behaviors after administration with the compound to be tested” value (“Behaviors after administration” below) falls from 10 dead to 7 dead.

Same assay, conditions: single dose 750 mg/kg intragastric, 10 mice/group, observed one week

Compared with `Cc1ccc(C2OC(CO)CC(O)C2O)cc1Cc1ccc(-c2ccc(F)cc2)s1` (stereo not shown), `Cc1ccc(C2OC(C)C(O)CC2O)cc1Cc1ccc(-c2ccc(F)cc2)s1` (stereo not shown) is lower in “Behaviors after administration” value: 3 dead for the first, 0 dead for the second.

Compared with `CC1OC(c2ccc(F)c(Cc3cc4ccccc4s3)c2)C(O)C(O)C1O` (stereo not shown), `OCC1CC(O)C(O)C(c2ccc(F)c(Cc3cc4ccccc4s3)c2)O1` (stereo not shown) is lower in “Behaviors after administration” value: 2 dead for the first, 1 dead for the second.

Compared with `CCOc1ccc(Cc2cc([C@]34OC[C@](C)(O3)[C@@H](O)[C@H](O)[C@H]4O)ccc2Cl)cc1`, `CCOc1ccc(Cc2cc([C@@]34OC[C@@](CO)(C[C@H](O)[C@H]3O)O4)ccc2Cl)cc1` is higher in “Behaviors after administration” value: 3 dead for the first, 4 dead for the second.

Going from `CCOc1ccc(Cc2cc(C3SC(CO)CC(O)C3O)c(OC)cc2C)cc1` (stereo not shown) to `CCOc1ccc(Cc2cc(C3SC(CO)C(O)CC3O)c(OC)cc2C)cc1` (stereo not shown) [drawing 303], the “Behaviors after administration” value falls from 1 dead to 0 dead.

Compared with `CCOc1ccc(Cc2cc(C3CC(O)C(O)C(CO)O3)ccc2Cl)cc1` (stereo not shown), `CCOc1ccc(Cc2cc(C3OC(CO)C(O)CC3O)ccc2Cl)cc1` (stereo not shown) is higher in “Behaviors after administration” value: 2 dead for the first, 3 dead for the second.

`CCOc1ccc(Cc2cc(C3OC(C)CC(O)C3O)ccc2Cl)cc1` (stereo not shown) and `CCOc1ccc(Cc2cc(C3OC(C)C(O)C(O)C3O)ccc2Cl)cc1` (stereo not shown) [drawing 282] are the same in “Behaviors after administration” value: 1 dead for the first, 1 dead for the second.

Compared with `CCOc1ccc(Cc2cc(C3OC(CO)C(O)C(O)C3O)ccc2Cl)cc1` (stereo not shown), `CCCOc1ccc(Cc2cc(C3OC(C)C(O)C(O)C3O)ccc2Cl)cc1` (stereo not shown) is lower in “Behaviors after administration” value: 8 dead for the first, 6 dead for the second.

Compared with `CC1OC(c2ccc(Cl)c(Cc3ccc(O[C@H]4CCOC4)cc3)c2)C(O)C(O)C1O` (stereo partly shown), `COc1ccc(Cc2cc(C3OC(C)C(O)C(O)C3O)ccc2Cl)cc1` (stereo not shown) [drawing 281] is higher in “Behaviors after administration” value: 1 dead for the first, 7 dead for the second.

`CCc1ccc(Cc2c(Cl)ccc3c2COC32OC(CO)C(O)CC2O)cc1` (stereo not shown) and `CCc1ccc(Cc2c(Cl)ccc3c2COC32OC(CO)CC(O)C2O)cc1` (stereo not shown) are the same in “Behaviors after administration” value: 5 dead for the first, 5 dead for the second.

First: Cc1ccc(C2OC(CO)C(O)C(O)C2O)cc1Cc1ccc(-c2ccc(F)cc2)s1 (stereo not shown)
Second: OCC1OC(c2ccc(F)c(Cc3cc4ccccc4s3)c2)CC(O)C1O (stereo not shown)
The “Behaviors after administration” value of the first is higher: 9 dead for the first, 3 dead for the second.

`CCOc1ccc(Cc2cc(C3SC(CO)C(O)CC3O)c(OC)cc2C)cc1` (stereo not shown) [drawing 304] and `CCOc1ccc(Cc2cc(C3CC(O)C(O)C(CO)S3)c(OC)cc2C)cc1` (stereo not shown) are the same in “Behaviors after administration” value: 3 dead for the first, 3 dead for the second.

Compared with `CCc1ccc(Cc2c(Cl)ccc3c2COC32OC(CO)C(O)C(O)C2O)cc1` (stereo not shown) [drawing 269], `CCOc1ccc(Cc2cc([C@]34OC[C@](CO)(O3)[C@@H](O)C[C@H]4O)ccc2Cl)cc1` is lower in “Behaviors after administration” value: 7 dead for the first, 3 dead for the second.

Going from `CCOc1ccc(Cc2cc(C3SC(C)C(O)C(O)C3O)c(OC)cc2C)cc1` (stereo not shown) to `CCOc1ccc(Cc2cc(C3CCC(O)C(CO)S3)c(OC)cc2C)cc1` (stereo not shown) [drawing 310], the “Behaviors after administration” value falls from 4 dead to 0 dead.

Going from `OCC1OC(c2ccc(Cl)c(Cc3ccc(O[C@H]4CCOC4)cc3)c2)C(O)CC1O` (stereo partly shown) to `OCC1OC(c2ccc(Cl)c(Cc3ccc(O[C@H]4CCOC4)cc3)c2)CC(O)C1O` (stereo partly shown), the “Behaviors after administration” value rises from 0 dead to 2 dead.

In the case of `OCC1CCC(O)C(c2ccc(Cl)c(Cc3ccc(O[C@H]4CCOC4)cc3)c2)O1` (stereo partly shown), the “Behaviors after administration” value is reported as 2 dead.
